# Reference: publication PMC5352699, “Synthesis and in vitro antitumor activity of (1E,4E)-1-aryl-5-(2-((quinazolin-4-yl)oxy)phenyl)-1,4-pentadien-3-one derivatives” (Chemistry Central Journal, 2017)
# Tests used:
# [1] = test system: human gastric cancer cell line MGC-803; experiment: MTT assay, MGC-803 cells; assay type: cell-based; settings: for inhibition at 10 µM: 72 h, read-out: Inhibition rates against different cells (%) MGC-803; for IC50: 72 h after treatment
# Protocol: (§1) The in vitro antitumor activity of the newly synthesized compounds 5a–5n were evaluated against a panel of three human cancer cell lines, including human gastric cancer cell line MGC-803, human prostate cancer cell line PC3, and human breast cancer cell line Bcap-37, and one normal cell line NIH3T3 (mouse embryo fibroblast cell line) by MTT method. Adriamycin (ADM) was chosen as a reference drug due to its availability and widespread use. Each experiment was repeated at least three times.
# (§2) Human gastric cancer cell line MGC-803, human prostate cancer cell line PC3, and human breast cancer cell line Bcap-37 and one normal cell line NIH3T3 were obtained from Cell Bank of Type Culture Collection of Chinese Academy of Sciences (Shanghai, China). NIH3T3 was routinely maintained in a DMEM medium, while all the other cell lines were cultured in a 1640 medium. All the cells were grown in the medium supplemented with 10% FBS at 37 °C with 5% CO2.
# (§3) The growth-inhibitory effects of the test compounds were determined on MGC-803, PC3, Bcap-37, and NIH3T3 cells. All cell types were seeded into 96-well plates at a density of 2 × 10^3 cells/well 100 μL of the proper culture medium and incubated with increasing concentrations of the compounds at 37 °C under cell culturing conditions. An MTT assay (Roche Molecular Biochemicals, 1465-007) was performed 72 h later according to the instructions provided by Roche. The precipitated formazan crystals were dissolved in SDS, and the absorbance was read at 595 nm with a microplate reader (BIO-RAD, model 680), which is directly proportional to the number of living cells in culture. The experiment was performed in triplicate. The percentage cytotoxicity was calculated using the formula. %Cytotoxicity=Controlabs-Blankabs-Testabs-Blankabs/Controlabs-Blankabs×100
# [2] = test system: human prostate cancer cell line PC3; experiment: MTT assay, PC3 cells; assay type: cell-based; settings: for inhibition at 10 µM: PC-3, 10 μM, 72 h, read-out: Inhibition rates against different cells (%) PC3; for IC50: PC-3, 72 h after treatment
# Protocol: as §1, §2, §3
# [3] = test system: human breast cancer cell line Bcap-37; experiment: MTT assay, Bcap-37 cells; assay type: cell-based; settings: for inhibition at 10 µM: Bcap37, 10 μM, 72 h, read-out: Inhibition rates against different cells (%) Bcap-37; for IC50: Bcap37, 72 h after treatment
# Protocol: as §1, §2, §3
# [4] = test system: normal cell line NIH3T3 (mouse embryo fibroblast cell line); experiment: MTT assay, NIH3T3 normal cells; assay type: cell-based; settings: 72 h, read-out: Inhibition rates against different cells (%) NIH3T3
# Protocol: as §1, §2, §3
# [5] = test system: MGC-803 cells; experiment: AO/EB staining for apoptosis; assay type: cell-based, human; settings: 12 h, 5f at 1, 5, 10 μM, HCPT at 10 μM
# Protocol: It is well known that AO can pass through cell membranes, but EB cannot. Under the fluorescence microscope, living cells appear green. Necrotic cells stain red but have a nuclear morphology resembling that of viable cells. Apoptotic cells appear green, and morphological changes such as cell blebbing and formation of apoptotic bodies will be observed.
# Representative images of the cells treated with 10 μM of HCPT (used as positive control) and 1, 5, 10 μM of compound 5f for 12 h are shown in Fig. 2a.
# (§4) Cells were seeded in 6-well culture plates at a density of 5 × 10^4 cells/mL in 0.6 mL of medium and allowed to adhere to the plates overnight. The cells were incubated with different concentrations of compounds or vehicle solution (0.1% DMSO) in a medium containing 10% FBS for 12 h. After the treatment, the cover slip with monolayer cells was inverted on the glass slide with 20 μL of AO/EB stain (100 μg/mL), and finally analyzed for morphological characteristics of cell apoptosis under a fluorescence microscope (Olympus Co., Japan).
# [6] = test system: MGC-803 cells; experiment: Hoechst 33,258 staining for apoptosis; assay type: cell-based, human; settings: MGC-803 cells, 1, 5, and 10 μM, 12 h
# Protocol: Membrane-permeable Hoechst 33,258 was a blue fluorescent dye and stained the cell nucleus. […] MGC-803 cells treated with compound 5f at concentrations of 1, 5, and 10 μM for 12 h were stained with Hoechst 33,258, with HCPT as positive control at 10 μM for 12 h. The results are illustrated in Fig. 2b.
# as §4, with “cells were fixed” for “cover slip”, “4% paraformaldehyde for 10 min, followed by incubation” for “monolayer cells was inverted on the glass slide”, “Hoechst 33,258 staining solution (Beyotime) for 5 min” for “20 μL of AO/EB stain (100 μg/mL),”
# [7] = test system: MGC-803 cells; experiment: TUNEL assay; assay type: cell-based, human; settings: 5 μM, 5f 6, 12, and 18 h, HCPT 18 h
# Protocol: To further verify AO/EB and Hoechst 33,258 staining results, TUNEL assay was also carried out. TUNEL (Terminal deoxynucleotidyl Transferase Biotin-dUTP Nick End Labeling) is a very popular assay for identifying apoptotic cells. The assay identifies apoptotic cells in situ by using terminal deoxynucleotidyl transferase (TdT) to transfer biotin-dUTP to these strand breaks of cleaved DNA. The biotin-labeled cleavage sites are then detected by reaction with HRP conjugated streptavidin and visualized by DAB showing brown color [24]. MGC-803 cells treated with compound 5f at 5 μM for 6, 12, and 18 h were stained with TUNEL, with HCPT as positive control at 5 μM for 18 h. […] We further concluded that compound 5f induced apoptosis against MGC-803.
# [8] = test system: MGC-803 cells; experiment: Flow cytometry, Annexin V/PI double staining; assay type: cell-based, human; settings: for apoptosis ratio: MGC-803 cells, 10 μM, 24 h
# Protocol: In addition, the apoptosis ratios induced by compound 5f in MGC-803 cells were determined by flow cytometry, using Annexin V/PI double staining. Flow cytometry was performed on the total cell population (including both adherent and detached cells) and apoptosis detection was carried out as mentioned above. This double staining procedure discriminated necrotic cells (Q1, Annexin^−/PI^+), late apoptotic cells (Q2, Annexin^+/PI^+), intact cells (Q3, Annexin^−/PI^−) and early apoptotic cells (Q4, Annexin^+/PI^−). […] For the positive control HCPT, the apoptosis ratio was only 22.3% after 24 h of treatment at a concentration of 10 μM.
# To further quantitative analysis of apoptosis, the cells were washed with PBS, stained with annexinV-FITC and propidium iodide (PI) using the AnnexinV-FITC kit (KeyGEN BioTECH). The cells were then subjected to flow cytometry according to manufacturer’s instructions and the stained cells were analyzed by FACS can flow cytometer (Becton–Dickinson, CA, USA).
SMILES,inhibition at 10 µM [1],IC50 [1],inhibition at 10 µM [2],IC50 [2],inhibition at 10 µM [3],IC50 [3],inhibition at 10 µM [4],"AO/EB staining, apoptotic morphology [5]","Hoechst 33,258 staining, apoptotic morphology [6]",TUNEL staining [7],"apoptosis of MGC-803 cells over time ([8]; 10 μM for 6, 12, and 24 h)",apoptosis ratio [8],melting point
"Cc1ccc2ncnc(Oc3ccccc3/C=C/C(=O)/C=C/c3c(Cl)cccc3Cl)c2c1 [Compound 5f, (1E,4E)-1-(2,6-dichlorophenyl)-5-(2-((6-methylquinazolin-4-yl)oxy)phenyl)penta-1,4-dien-3-one]",90.7 ± 0.6%,0.85 ± 0.43 µM,93 ± 1.8%,1.37 ± 0.22 µM,76.5 ± 1.9%,4.98 ± 0.39 µM,21.5 ± 2.7%,apoptotic cells with typical apoptotic features,exhibited strong blue fluorescence and revealed typical apoptotic morphology,appeared as brown precipitate,gradually increased in a time-dependent manner,26.4%,–
"Cc1cccc2c(Oc3ccccc3/C=C/C(=O)/C=C/c3ccc(Cl)cc3)ncnc12 [Compound 5j, (1E,4E)-1-(4-chlorophenyl)-5-(2-((8-methylquinazolin-4-yl)oxy)phenyl)penta-1,4-dien-3-one]",76.3 ± 0.8%,6.42 ± 0.44 µM,71.9 ± 3.1%,8.64 ± 0.47 µM,45.4 ± 2.2%,12.1 ± 0.31 µM,41 ± 2.1%,–,–,–,–,–,161 to 163 °C
"Cc1cccc2c(Oc3ccccc3/C=C/C(=O)/C=C/c3cc([N+](=O)[O-])ccc3Cl)ncnc12 [Compound 5k, (1E,4E)-1-(2-chloro-5-nitrophenyl)-5-(2-((8-methylquinazolin-4-yl)oxy)phenyl)penta-1,4-dien-3-one]",82.1 ± 3%,2.94 ± 0.32 µM,76.3 ± 2.5%,8.12 ± 0.46 µM,60.2 ± 1.4%,8.92 ± 0.58 µM,3 ± 2.3%,–,–,–,–,–,198 to 200 °C
"Cc1cccc2c(Oc3ccccc3/C=C/C(=O)/C=C/c3ccc(Cl)cc3Cl)ncnc12 [Compound 5l, (1E,4E)-1-(2,4-dichlorophenyl)-5-(2-((8-methylquinazolin-4-yl)oxy)phenyl)penta-1,4-dien-3-one]",61.2 ± 1.3%,4.33 ± 0.35 µM,55.7 ± 1.5%,9.08 ± 0.52 µM,54.6 ± 1%,9.83 ± 0.46 µM,0.8 ± 1.6%,–,–,–,–,–,175 to 178 °C
"Cc1cccc2c(Oc3ccccc3/C=C/C(=O)/C=C/c3c(Cl)cccc3Cl)ncnc12 [Compound 5m, (1E,4E)-1-(2,6-dichlorophenyl)-5-(2-((8-methylquinazolin-4-yl)oxy)phenyl)penta-1,4-dien-3-one]",81.1 ± 1.7%,2.05 ± 0.39 µM,81.2 ± 2.8%,3.79 ± 0.47 µM,66.4 ± 1.5%,7.82 ± 0.39 µM,12.4 ± 2.5%,–,–,–,–,–,161 to 163 °C
"COc1ccc(OC)c(/C=C/C(=O)/C=C/c2ccccc2Oc2ncnc3c(C)cccc23)c1 [Compound 5n, (1E,4E)-1-(2,5-dimethoxyphenyl)-5-(2-((8-methylquinazolin-4-yl)oxy)phenyl)penta-1,4-dien-3-one]",78.7 ± 2.7%,3.33 ± 0.42 µM,69 ± 1.7%,4.16 ± 0.43 µM,55.8 ± 1.1%,8.7 ± 0.54 µM,29.6 ± 2.4%,–,–,–,–,–,176 to 178 °C
"CC[C@@]1(O)C(=O)OCc2c1cc1n(c2=O)Cc2cc3cc(O)ccc3nc2-1 [HCPT, 10-hydroxyl camptothecine, reference compound]",–,–,–,–,–,–,–,apoptotic cells with typical apoptotic features,–,appeared as brown precipitate,–,22.3%,–
